Assay results from PubChem BioAssay (NCI).
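Briefly, cells in 96-well plates were exposed to five compound concentrations for 48 h, and endpoints were estimated by linear interpolation. TGI is the concentration that stops growth completely.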

Experiments:
Experiment in all cases: NCI tumour cell line growth inhibition, 48 h
DMS 273 small cell lung = tested on: DMS 273 small cell lung
A498 renal = tested on: A498 renal
MALME-3M melanoma = tested on: MALME-3M melanoma
SK-MEL-2 melanoma = tested on: SK-MEL-2 melanoma
DU-145 prostate = tested on: DU-145 prostate
OVCAR-3 ovarian = tested on: OVCAR-3 ovarian
COLO 205 colon = tested on: COLO 205 colon
EKVX NSCLC = tested on: EKVX NSCLC
T-47D breast = tested on: T-47D breast
SK-MEL-5 melanoma = tested on: SK-MEL-5 melanoma
DLD-1 colon = tested on: DLD-1 colon
MDA-N = tested on: MDA-N
U251 CNS = tested on: U251 CNS
P388/ADR leukemia = tested on: P388/ADR leukemia
HOP-92 NSCLC = tested on: HOP-92 NSCLC
786-0 renal = tested on: 786-0 renal
PC-3 prostate = tested on: PC-3 prostate
MCF7 breast = tested on: MCF7 breast
HCT-116 colon = tested on: HCT-116 colon
SNB-19 CNS = tested on: SNB-19 CNS
OVCAR-5 ovarian = tested on: OVCAR-5 ovarian
SNB-75 CNS = tested on: SNB-75 CNS
HOP-18 NSCLC = tested on: HOP-18 NSCLC
UACC-257 melanoma = tested on: UACC-257 melanoma
SNB-78 CNS = tested on: SNB-78 CNS
HCT-15 colon = tested on: HCT-15 colon
HOP-62 NSCLC = tested on: HOP-62 NSCLC
P388 leukemia = tested on: P388 leukemia
XF 498 CNS = tested on: XF 498 CNS
A549 NSCLC = tested on: A549 NSCLC
SR leukemia = tested on: SR leukemia
OVCAR-4 ovarian = tested on: OVCAR-4 ovarian
SF-268 CNS = tested on: SF-268 CNS
SF-539 CNS = tested on: SF-539 CNS
OVCAR-8 ovarian = tested on: OVCAR-8 ovarian
NCI-H460 lung = tested on: NCI-H460 lung
CCRF-CEM leukemia = tested on: CCRF-CEM leukemia
SK-MEL-28 melanoma = tested on: SK-MEL-28 melanoma
HT29 colon = tested on: HT29 colon
MDA-MB-231 breast = tested on: MDA-MB-231 breast
LOX IMVI melanoma = tested on: LOX IMVI melanoma
M19-MEL melanoma = tested on: M19-MEL melanoma
SN12K1 renal = tested on: SN12K1 renal
HCC-2998 colon = tested on: HCC-2998 colon
NCI-H23 lung = tested on: NCI-H23 lung
SN12C renal = tested on: SN12C renal
NCI-H522 lung = tested on: NCI-H522 lung
KM20L2 colon = tested on: KM20L2 colon
TK-10 renal = tested on: TK-10 renal
RPMI-8226 leukemia = tested on: RPMI-8226 leukemia
MOLT-4 leukemia = tested on: MOLT-4 leukemia
BT-549 breast = tested on: BT-549 breast
SF-295 CNS = tested on: SF-295 CNS
IGROV1 ovarian = tested on: IGROV1 ovarian
HL-60(TB) leukemia = tested on: HL-60(TB) leukemia
DMS 114 small cell lung = tested on: DMS 114 small cell lung
K-562 leukemia = tested on: K-562 leukemia
M14 melanoma = tested on: M14 melanoma
RXF 393 renal = tested on: RXF 393 renal
CAKI-1 renal = tested on: CAKI-1 renal
NCI-H226 lung = tested on: NCI-H226 lung
KM12 colon = tested on: KM12 colon
SK-OV-3 ovarian = tested on: SK-OV-3 ovarian
SW-620 colon = tested on: SW-620 colon
ACHN renal = tested on: ACHN renal
UACC-62 melanoma = tested on: UACC-62 melanoma
UO-31 renal = tested on: UO-31 renal
NCI/ADR-RES ovarian = tested on: NCI/ADR-RES ovarian

`CCCCCCCCCCCC[S+](C)C` showed a TGI (DMS 273 small cell lung) of 17.2 µM, a TGI (A498 renal) of 28.1 µM and a TGI (MALME-3M melanoma) of 22.4 µM. The TGI (SK-MEL-2 melanoma) was 17.6 µM, the TGI (DU-145 prostate) was 17.6 µM and the TGI (OVCAR-3 ovarian) was 18.6 µM. The TGI (COLO 205 colon) was 5.15 µM, the TGI (EKVX NSCLC) was 20.2 µM and the TGI (T-47D breast) was 3.37 µM. For the same compound, the TGI (SK-MEL-5 melanoma) was 9.25 µM, the TGI (DLD-1 colon) was 25.9 µM and the TGI (MDA-N) was 15.5 µM. For the same compound, the TGI (U251 CNS) was 31.7 µM, the TGI (P388/ADR leukemia) was over 100 µM and the TGI (HOP-92 NSCLC) was 9.48 µM. It also gave a TGI (786-0 renal) of 13.3 µM, a TGI (PC-3 prostate) of 9.92 µM and a TGI (MCF7 breast) of 24.5 µM. The TGI (HCT-116 colon) was 20.8 µM, the TGI (SNB-19 CNS) was 20.5 µM and the TGI (OVCAR-5 ovarian) was 22.5 µM. The TGI (SNB-75 CNS) was 16.6 µM, the TGI (HOP-18 NSCLC) was 14.9 µM and the TGI (UACC-257 melanoma) was 17.4 µM. The TGI (SNB-78 CNS) was 26.6 µM, the TGI (HCT-15 colon) was 53.8 µM and the TGI (HOP-62 NSCLC) was 1.52 µM. It also gave a TGI (P388 leukemia) of 3.1 µM, a TGI (XF 498 CNS) of 6.71 µM and a TGI (A549 NSCLC) of 26.1 µM. The TGI (SR leukemia) was over 100 µM, the TGI (OVCAR-4 ovarian) was 18.8 µM and the TGI (SF-268 CNS) was 20.2 µM. For the same compound, the TGI (SF-539 CNS) was 19.4 µM, the TGI (OVCAR-8 ovarian) was 17.9 µM and the TGI (NCI-H460 lung) was 33.2 µM. The TGI (CCRF-CEM leukemia) was 14.5 µM, the TGI (SK-MEL-28 melanoma) was 25.3 µM and the TGI (HT29 colon) was 18.3 µM. It also gave a TGI (MDA-MB-231 breast) of 10.1 µM, a TGI (LOX IMVI melanoma) of 15.9 µM and a TGI (M19-MEL melanoma) of 6.45 µM. It also gave a TGI (SN12K1 renal) of 18.8 µM, a TGI (HCC-2998 colon) of 16.8 µM and a TGI (NCI-H23 lung) of 19.7 µM. For the same compound, the TGI (SN12C renal) was 15.3 µM, the TGI (NCI-H522 lung) was 15.6 µM and the TGI (KM20L2 colon) was 20.9 µM. It also gave a TGI (TK-10 renal) of 18.3 µM, a TGI (RPMI-8226 leukemia) of 28.4 µM and a TGI (MOLT-4 leukemia) of 28.2 µM. It also gave a TGI (BT-549 breast) of 7.68 µM, a TGI (SF-295 CNS) of 16.6 µM and a TGI (IGROV1 ovarian) of 6.16 µM. The TGI (HL-60(TB) leukemia) was 14.1 µM, the TGI (DMS 114 small cell lung) was 13.4 µM and the TGI (K-562 leukemia) was 49.4 µM. The TGI (M14 melanoma) was 19.9 µM, the TGI (RXF 393 renal) was 9.38 µM and the TGI (CAKI-1 renal) was 10.3 µM. For the same compound, the TGI (NCI-H226 lung) was 15.4 µM, the TGI (KM12 colon) was 14.3 µM and the TGI (SK-OV-3 ovarian) was 21.7 µM. The TGI (SW-620 colon) was 30.2 µM, the TGI (ACHN renal) was 19.4 µM and the TGI (UACC-62 melanoma) was 21.9 µM. It also gave a TGI (UO-31 renal) of 27.2 µM and a TGI (NCI/ADR-RES ovarian) of over 91.9 µM.
